# Measurements from patent US20230099344A1, “COMPOUNDS AND METHODS FOR THE TARGETED DEGRADATION OF IRAK-4” (Arvinas Operations, Inc., priority 2021, published 2023).
# Biological target: T1, IRAK-4 (Homo sapiens, UniProt Q9NWZ3)
# T1 sequence (Q9NWZ3 1-460): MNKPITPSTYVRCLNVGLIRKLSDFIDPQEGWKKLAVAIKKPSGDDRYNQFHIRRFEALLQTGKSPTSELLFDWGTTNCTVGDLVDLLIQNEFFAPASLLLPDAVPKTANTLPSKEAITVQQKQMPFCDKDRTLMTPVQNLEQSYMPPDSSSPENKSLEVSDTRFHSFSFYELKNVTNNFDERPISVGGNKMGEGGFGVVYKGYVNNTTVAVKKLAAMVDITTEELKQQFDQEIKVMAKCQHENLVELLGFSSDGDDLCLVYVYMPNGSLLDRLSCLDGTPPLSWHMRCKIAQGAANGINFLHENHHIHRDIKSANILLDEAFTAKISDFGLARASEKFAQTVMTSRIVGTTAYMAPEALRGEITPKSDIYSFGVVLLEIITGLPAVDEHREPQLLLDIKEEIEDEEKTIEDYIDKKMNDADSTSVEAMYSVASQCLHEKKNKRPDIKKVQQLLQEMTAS
# Assay: IRAK-4 ELISA, PBMC degradation
# Format: cell-based
# Set-up: endogenous in cells; host or cells: PBMC
# Details: treated overnight
# Outline: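 Overnight compound treatment, started on the day of plating, of OCI-Ly10 (1×10^6/ml) and PBMC (2×10^6/ml) cultures. Lysates are collected and IRAK-4 content is read by sandwich ELISA.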
Compound,DC50 [nM],Dmax [%],PBMC DC90,PBMC Dmax
CC(C)Oc1cc2nn(C3CCN(CC4(F)CCN(c5ccc6c(c5)C(=O)N(C5CCC(=O)NC5=O)C6=O)CC4)CC3)cc2cc1NC(=O)c1cnn2cccnc12 (stereo not drawn) [Example 188],5 to 10,≥ 90,D (D represents a DC90 value ≥50 nM),
CC(C)Oc1cc2nn([C@H]3CC[C@H](NCC4(F)CN(c5ccc6c(c5)C(=O)N(C5CCC(=O)NC5=O)C6=O)C4)CC3)cc2cc1NC(=O)c1cnn2cccnc12 (stereo partly drawn) [Example 348],< 1,≥ 90,A (A represents a DC90 value <10.0 nM),
"Cn1c(=O)n(C2CCC(=O)NC2=O)c2cccc(N3CCC(CN4CCC(n5cc6cc(NC(=O)c7cnn8cccnc78)c(OCC7CC7)cc6n5)CC4)CC3)c21 (stereo not drawn) [Example 390, N-(6-(cyclopropylmethoxy)-2-(1-((1-(1-(2,6-dioxopiperidin-3-yl)-3-methyl-2-oxo-2,3-dihydro-1H-benzo[d]imidazol-4-yl)piperidin-4-yl)methyl)piperidin-4-yl)-2H-indazol-5-yl)pyrazolo[1,5-a]pyrimidine-3-carboxamide]",< 1,≥ 90,A (A represents a DC90 value <10.0 nM),
CC(C)Oc1cc2c(cc1NC(=O)c1cnn3cccnc13)CN(CCOCC1CCN(c3ccc4c(c3)C(=O)N(C3CCC(=O)NC3=O)C4=O)CC1)C2=O (stereo not drawn) [Example 90],< 1,≥ 90,A (A represents a DC90 value <10.0 nM),
O=C1CCC(N2C(=O)c3ccc(N4CC(CN5CCC(N6Cc7cc(NC(=O)c8cnn9cccnc89)c(OC8CC8)cc7C6=O)CC5)C4)cc3C2=O)C(=O)N1 (stereo not drawn) [Example 84],< 1,≥ 90,A (A represents a DC90 value <10.0 nM),
CC1(N2CCC(n3cc4cc(NC(=O)c5cnn6cccnc56)c(OCC5CC5)cc4n3)CC2)CN(c2ccc3c(c2)C(=O)N(C2CCC(=O)NC2=O)C3=O)C1 (stereo not drawn) [Example 228],1 to 5,80 to 90,C (C represents a DC90 value ≥25.0 nM and <50 nM),
"O=C1CCC(N2C(=O)c3ccc(N4CC5(CCCN(C6CCC(n7cc8cc(NC(=O)c9cnn%10cccnc9%10)c(OCC9CC9)cc8n7)CC6)C5)C4)cc3C2=O)C(=O)N1 (stereo not drawn) [Example 417, N-(6-(cyclopropylmethoxy)-2-(4-(2-(2-(2,6-dioxopiperidin-3-yl)-1,3-dioxoisoindolin-5-yl)-2,6-diazaspiro[3.5]nonan-6-yl)cyclohexyl)-2H-indazol-5-yl)pyrazolo[1,5-a]pyrimidine-3-carboxamide]",< 1,≥ 90,A (A represents a DC90 value <10.0 nM),
CN(C1CCC(n2cc3cc(NC(=O)c4cnn5cccnc45)c(OCC4CC4)cc3n2)CC1)C1CCN(c2ccc3c(c2)C(=O)N(C2CCC(=O)NC2=O)C3)CC1 (stereo not drawn) [Example 354],< 1,70 to 80,D (D represents a DC90 value ≥50 nM),
CN(C1CCC(n2cc3cc(NC(=O)c4cnn5cccnc45)c(OCC4CC4)cc3n2)CC1)C1CN(c2ccc3c(c2)C(=O)N(C2CCC(=O)NC2=O)C3)C1 (stereo not drawn) [Example 355],1 to 5,80 to 90,D (D represents a DC90 value ≥50 nM),
CC(C)Oc1cc2c(cc1NC(=O)c1cnn3cccnc13)CN(C1CCN(CC3(F)CN(c4cccc5c4n(C)c(=O)n5C4CCC(=O)NC4=O)C3)CC1)C2=O (stereo not drawn) [Example 385],< 1,≥ 90,A (A represents a DC90 value <10.0 nM),
CN(C1CN(c2ccc3c(c2)C(=O)N(C2CCC(=O)NC2=O)C3=O)C1)[C@H]1CC[C@H](n2cc3cc(NC(=O)c4cnn5cccnc45)c(C4CC4)cc3n2)CC1 (stereo partly drawn) [Example 343],< 1,≥ 90,A (A represents a DC90 value <10.0 nM),
CC(C)Oc1cc2c(cc1NC(=O)c1cnn3cccnc13)CN(C1CCC(N(CC(F)(F)F)C3CN(c4ccc5c(c4)C(=O)N(C4CCC(=O)NC4=O)C5=O)C3)CC1)C2=O (stereo not drawn) [Example 332],≥ 10,≥ 90,D (D represents a DC90 value ≥50 nM),
CC(C)Oc1cc2c(cc1NC(=O)c1cnn3cccnc13)CN(C1CCN(CC3(F)CN(c4ccc(C(=O)NC5CCC(=O)NC5=O)c(F)c4)C3)CC1)C2=O (stereo not drawn) [Example 297],1 to 5,≥ 90,B (B represents a DC90 value ≥10.0 nM and <25.0 nM),
CC(C)Oc1cc2nn(C3CCN(CC4(F)CN(c5cccc6c5n(C)c(=O)n6C5CCC(=O)NC5=O)C4)CC3)cc2cc1NC(=O)c1cnn2cccnc12 (stereo not drawn) [Example 386],< 1,≥ 90,A (A represents a DC90 value <10.0 nM),
"O=C1CCC(N2C(=O)c3ccc(N4CC(F)(CN5CCC(n6cc7cc(NC(=O)c8cnn9cccnc89)c(C(F)F)cc7n6)CC5)C4)cc3C2=O)C(=O)N1 (stereo not drawn) [Example 408, N-[6-(difluoromethyl)-2-[1-[[1-[2-(2,6-dioxo-3-piperidyl)-1,3-dioxo-isoindolin-5-yl]-3-fluoro-azetidin-3-yl]methyl]-4-piperidyl]indazol-5-yl]pyrazolo[1,5-a]pyrimidine-3-carboxamide]",< 1,≥ 90,A (A represents a DC90 value <10.0 nM),
O=C1CCC(N2C(=O)c3ccc(N4CC(F)(CN[C@H]5CC[C@H](n6cc7cc(NC(=O)c8cnn9cccnc89)c(OCC8CC8)cc7n6)CC5)C4)cc3C2=O)C(=O)N1 (stereo partly drawn) [Example 351],< 1,80 to 90,A (A represents a DC90 value <10.0 nM),
O=C1CCC(N2C(=O)c3ccc(N4CC(F)(CN5CCC(N6Cc7cc(NC(=O)c8cnn9cccnc89)c(OCC8CC8)cc7C6=O)CC5)C4)cc3C2=O)C(=O)N1 (stereo not drawn) [Example 89],1 to 5,80 to 90,B (B represents a DC90 value ≥10.0 nM and <25.0 nM),
O=C1CCC(N2C(=O)c3ccc(N4CCC5(CCC(CN6CCC(n7cc8cc(NC(=O)c9cnn%10cccnc9%10)c(OCC9CC9)cc8n7)CC6)CC5)CC4)cc3C2=O)C(=O)N1 (stereo not drawn) [Example 247],1 to 5,≥ 90,B (B represents a DC90 value ≥10.0 nM and <25.0 nM),
COc1cc2nn(C3CCN(CC4(F)CN(c5ccc6c(c5)C(=O)N(C5CCC(=O)NC5=O)C6=O)C4)CC3)cc2cc1NC(=O)c1cnn2ccc(N3CCOCC3)nc12 (stereo not drawn) [Example 236],< 1,70 to 80,A (A represents a DC90 value <10.0 nM),
CC(C)Oc1cc2c(cc1NC(=O)c1cnn3cccnc13)CN(C[C@@H](F)C1CCN(CC3CN(c4ccc5c(c4)C(=O)N(C4CCC(=O)NC4=O)C5=O)C3)CC1)C2=O (stereo partly drawn) [Example 70],< 1,≥ 90,A (A represents a DC90 value <10.0 nM),
CC(C)(C1CCN(c2ccc3c(c2)C(=O)N(C2CCC(=O)NC2=O)C3=O)CC1)N1CCC(n2cc3cc(NC(=O)c4cnn5cccnc45)c(OCC4CC4)cc3n2)CC1 (stereo not drawn) [Example 230],1 to 5,≥ 90,D (D represents a DC90 value ≥50 nM),
"CCN(C1CCN(c2ccc3c(c2)C(=O)N([C@@H]2CCC(=O)NC2=O)C3=O)CC1)[C@H]1C[C@H](n2cc3cc(NC(=O)c4cnn5cccnc45)c(OC(C)C)cc3n2)C1 [Example 377, N-(2-((1r,3r)-3-((1-(2-(2,6-dioxopiperidin-3-yl)-1,3-dioxoisoindolin-5-yl)piperidin-4-yl)(ethyl)amino)cyclobutyl)-6-isopropoxy-2H-indazol-5-yl)pyrazolo[1,5-a]pyrimidine-3-carboxamide]",1 to 5,,B (B represents a DC90 value ≥10.0 nM and <25.0 nM),A (A represents a Dmax value ≥90)
O=C1CCC(N2C(=O)c3ccc(N4CCO[C@@H](CN5CCC(n6cc7cc(NC(=O)c8cnn9cccnc89)c(OCC8CC8)cc7n6)CC5)C4)cc3C2=O)C(=O)N1 (stereo partly drawn) [Example 176],< 1,≥ 90,A (A represents a DC90 value <10.0 nM),
O=C1CCC(N2Cc3cc(N4CC(N5CCC(N6Cc7cc(NC(=O)c8cnn9cccnc89)c(N8CCC(N9CCC9)CC8)cc7C6=O)CC5)C4)ccc3C2=O)C(=O)N1 (stereo not drawn) [Example 39],5 to 10,≥ 90,C (C represents a DC90 value ≥25.0 nM and <50 nM),
O=C1CCC(N2C(=O)c3ccc(N4CC(N(CC(F)F)C5CCC(n6cc7cc(NC(=O)c8cnn9cccnc89)c(OCC8CC8)cc7n6)CC5)C4)cc3C2=O)C(=O)N1 (stereo not drawn) [Example 326],1 to 5,≥ 90,B (B represents a DC90 value ≥10.0 nM and <25.0 nM),
CCN(C1CN(c2cccc3c2C(=O)N(C2CCC(=O)NC2=O)C3=O)C1)[C@H]1CC[C@H](n2cc3cc(NC(=O)c4cnn5cccnc45)c(OC(C)C)cc3n2)CC1 (stereo partly drawn) [Example 320],≥ 10,80 to 90,D (D represents a DC90 value ≥50 nM),
